The values that follow come from patent US20040023901A1, “Nucleoside 5'-monophosphate mimics and their prodrugs” (priority 2002, published 2004).

Broadly, the half-life is how long it takes for the measured level to halve. For orientation: Ki means the dissociation constant of the complex between target and ligand, obtained from inhibition or displacement. Read a low Ki as tighter binding. As usually defined, the inhibition is the change of the read-out against control, counted positive when it falls.

For data set [1] the following is noted: bovine.
Method: (§15) Fetal calf serum purchased from HyClone Corporation was mixed 1:1 with each compound containing Tris-HCl buffer and MgCl2. Typically the total volume used for the experiment was 500 μl.
(§16) The final concentrations of the reaction components were as follows:
(§17) The reaction mixtures were made up and incubated at 37° C. At appropriate times aliquots of 25 μl were removed and added to 65 μl ice-cold methanol. These solutions were incubated for at least one hour at −20° C. and typically overnight. After incubation samples were centrifuged for at least 20 minutes at high speed in a microcentrifuge. The supernatant was transferred to a clean tube and the extract was dried under vacuum in a LabConco Centrivap Concentrator. The dried extracts were resuspended in dH2O and filtered to remove particulate before analysis on reverse phase HPLC.
(§18) The reverse phase HPLC columns used for the analysis were either a Phenomenex C18 Aqua column (2×100 mm) or the Phenomenex C18 Aqua column (3×150 mm) used with the appropriate guard column. The HPLC was run at 0.2 ml/min (for the 2×100 mm column) or at 0.5 ml/min (for the 3×150 mm column) with the following buffer system: 5 mM tetrabutylammonium acetate, 50 nM ammonium phosphate, and an acetonitrile gradient running from 5% up to as high as 60%. The amount of remaining parent compound at each time point was used to determine the half-life of the compound. […] Unmodified nucleoside monophosphates were used as positive controls.
Data set [2] can be described thus: in vitro. As to conditions: bovine, 10% (v/v) fetal calf serum, pH 7.4.
Method: as §15, §16, §17, §18
Data set [3] has as its target purified Candida albicans IMPDH (Candida albicans, UniProt O00086). As to the kind of experiment: Assay for inhibition of IMPDH activity (C. albicans). In kind it is biochemical. As to conditions: for Ki: C. albicans IMPDH, 50 uM IMP, 150 uM NAD, 25° C.; for inhibition at 100 µM: read-out: % Inhibition at 100 μM C. albicans. The method, then:
(§1) The assays employed to measure the inhibition of inosine monophosphate dehydrogenase (IMPDH) activity are described below. The effectiveness of the compounds of the present invention as inhibitors of IMPDH enzymes was determined in the following assays. This assay was used to measure the ability of the nucleotide mimics of the present invention to inhibit the enzymatic reaction catalyzed by IMPDH enzymes. The assay is useful for measuring the activity of IMPDH from several organisms, including human, fungal, and bacterial isoforms. In the enzymatic reaction, the oxidation of inosine 5′-monophosphate (IMP) to xanthosine 5′-monophosphate (XMP) is coupled to the reduction of nicotinamide adenine dinucleotide (NAD). This reaction is monitored at 340 nm using a UV/VIS spectrophotometer or at 474 nm using a fluorometer (excitation wavelength=344 nm). This assay is a modification of a reported method (W. Wang and L. Hedstrom, “A Potent ‘Fat Base’ Nucleotide Inhibitor of IMP Dehydrogenase,” Biochemistry 1998, 37, 11949-52).
(§2) Assay Buffer Conditions: (200 uL-total/reaction)
(§3) 30 nM purified human type II IMPDH, or
(§4) 7.5 nM purified Candida albicans IMPDH
(§5) The compounds were tested at various concentrations up to 500 uM final concentration. The standard IMPDH assay is performed in a 96-well plate (Corning). An appropriate volume of assay buffer, containing the substrates IMP and NAD, was pipetted into the plate wells. Nucleoside derivatives of the present invention were added to the reactions at the desired concentrations. The reactions were initiated by the addition of enzyme. The reactions were allowed to proceed for 5 minutes at 25° C. The production of NADH was monitored at 340 nm on a microplate spectrophotometer (Molecular Devices Corp, Sunnyvale, Calif.). Initial velocity data (mA min^−1) was collected and fit to the equations below. Blank reactions were prepared in parallel with the test reactions in which enzyme was omitted from the reactions, substituted by an appropriate volume of enzyme diluent.
(§6) The percentage of inhibition was calculated according to the following equation:
(§7) % Inhibition=[1−(mA min^−1 in test reaction−mA min^−1 in blank)/(mA min^−1 in control reaction−mA min^−1 in blank)]×100.
(§8) Each inhibitor was titrated over an appropriate range of concentrations, and inhibition constants were determined using the following equations where v=initial velocity, Vm=maximal velocity, S=substrate, I=inhibitor, Km=Michaelis constant, and Ki=inhibition constant:
(§9) Michaelis-Menten Equation: […]
(§10) Competitive Inhibition Equation:
(§11) Inhibition constants (Ki) for irreversible inhibitors of IMPDH were determined using the following three equations where kobs=observed rate constant, t=time, A=absorbance at time t, A0=initial absorbance at time zero, V0=initial rate, S=substrate, I=inhibitor, k2=[…] rate constant, Km=Michaelis constant, Ki, app=apparent inhibition constant, and Ki=inhibition constant:
(§12) Irreversible Inhibition Equations 1-3:
(§13) A−A0=V0[1−exp(−kobst)] (equation 1)
(§14) Kobs=k2[I]/(Ki, app+[I]) (equation 2)

Data set [4] concerns the target purified human type II IMPDH (Homo sapiens, UniProt P12268). Briefly: Assay for inhibition of IMPDH activity (human type II). In kind it is biochemical. Particulars: 50 uM IMP, 150 uM NAD, 25° C. Here is the method:
as §1, §2, §3, §4, §5, §6, §7, §8, §9, §10, §11, §12, §13, §14

Data set [5] can be described thus: Serum stability assessment in fetal calf serum. As to conditions: 10% (v/v) fetal calf serum, 37° C., 500 μM nucleotide mimic, time points through 24 hours.
Method: as §15, §16, §17, §18

Read-outs that look alike come from different tables or passages of the source.

Sequence of purified Candida albicans IMPDH (O00086 whole entry, canonical isoform): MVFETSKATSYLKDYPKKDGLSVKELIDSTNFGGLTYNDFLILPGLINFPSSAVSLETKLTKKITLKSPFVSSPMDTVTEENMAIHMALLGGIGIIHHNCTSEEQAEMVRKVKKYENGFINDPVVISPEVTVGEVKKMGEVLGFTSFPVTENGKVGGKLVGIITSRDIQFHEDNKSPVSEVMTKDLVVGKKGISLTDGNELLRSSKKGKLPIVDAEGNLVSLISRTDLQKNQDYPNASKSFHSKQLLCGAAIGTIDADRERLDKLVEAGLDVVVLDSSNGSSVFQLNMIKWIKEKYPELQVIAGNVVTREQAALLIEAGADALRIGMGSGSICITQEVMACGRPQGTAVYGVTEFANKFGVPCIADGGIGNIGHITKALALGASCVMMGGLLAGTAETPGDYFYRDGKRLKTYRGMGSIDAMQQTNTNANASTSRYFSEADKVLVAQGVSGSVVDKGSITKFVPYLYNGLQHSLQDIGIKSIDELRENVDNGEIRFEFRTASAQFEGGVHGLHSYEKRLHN

Turning to “5-Ethynyl-1-(5-methylphopsphonyl-β-D-ribofuranosyl)imidazole-4-carboxamide [Compound 10]”, in data set [1], the “Serum t1/2” value was greater than 8 h.

In the case of `NC(=O)c1ncn([C@@H]2O[C@H](COP(=O)(O)S)[C@H](O)C2O)n1` (stereo partly drawn) [Compound 1, 1-β-D-ribofuranosyl-1,2,4-triazole-3-carboxamide 5′-phosphothioate], in data set [2], the half-life at 500 μM is 18 h. In addition, the values for the Ki in data set [3] and in data set [4] were 1.34 µM and 0.94 µM, respectively.

Consider `C#Cc1c(C(N)=O)ncn1[C@@H]1O[C@H](COP(=O)(O)S)[C@H](O)C1O` (stereo partly drawn) [Compound 2, 5-Ethynyl-1-(1-D-ribofuranosyl)imidazole-4-carboxamide 5′-phosphorothioate], for which the inhibition at 100 µM in data set [3] was determined as 82%. This compound also had a Ki in data set [4] of 34.2 µM.

In data set [4], `NC(=O)c1ncn([C@@H]2O[C@H](COCP(=O)(O)O)[C@@H](O)[C@H]2O)n1` [Compound 19, 1-[5-O-(Dihydroxyphosphinyl)methyl-β-D-ribofuranosyl]-1,2,4-triazole-3-carboxamide] showed a Ki of 85 µM.

As for `NC(=O)c1ncn([C@@H]2O[C@H](CP(=O)(O)O)[C@@H](O)[C@H]2O)n1` [Compound 39, 1-[5-Deoxy-5-(dihydroxyphosphinyl)-β-D-ribofuranosyl]-1,2,4-triazole-3-carboxamide], the Ki came out at 1.48 µM in data set [3] and 1.82 µM in data set [4].

`NC(=O)c1ncn([C@@H]2O[C@H](C[PH](=O)O)[C@H](O)C2O)n1` (stereo partly drawn) [Compound 40, 1-[5-Deoxy-5-(hydroxyl-H-phosphinyl)-β-D-ribofuranosyl]-11,24-triazole-3-carboxamide] registered a half-life at 500 μM in data set [2] greater than 24 h.

As for `NC(=O)c1ncn([C@@H]2O[C@H](CP(=O)(O)O)[C@H](O)C2O)c1O` (stereo partly drawn) [Compound 44, 4-Carbamoyl-1-[5-deoxy-5-(dihydroxyphosphinyl)-β-D-ribofuranosyl]-1,3-imidazolium-5-olate], the inhibition at 100 µM in data set [3] was 98.1%. This compound also displayed an inhibition constant (Ki) in data set [4] of 7.92 µM.

In data set [2], `NC(=O)c1ncn([C@@H]2O[C@H](CC(F)(F)P(=O)(O)O)[C@H](O)C2O)n1` (stereo partly drawn) [Compound 48] had a half-life at 500 μM greater than 24 h. Also, the Ki in data set [3] was found to be 20.4 µM; in data set [4], 27.1 µM.

Take `NC(=O)c1ncn([C@@H]2O[C@H](CC(F)(F)P(=O)(O)O)[C@H](O)C2O)c1O` (stereo partly drawn) [Compound 50, 4-Carbamoyl-1-[5,6-dideoxy-6-(dihydroxyphosphinyl)-6,6-difluoro-β-D-allofuranosyl]-1,3-imidazolium-5-olate]: the inhibition at 100 µM in data set [3] worked out at 71.5%. In addition, the Ki in data set [4] amounted to 2.04 µM.

As to `NC(=O)c1ncn([C@@H]2O[C@H](CO[PH](O)=S)[C@H](O)C2O)n1` (stereo partly drawn) [Compound 53, 1-[5-O-(H-Thiophosphonyl)-β-D-ribofuranosyl]-1,2,4-triazole-3-carboxamide], the Ki is 10.7 µM in data set [3] and 34.7 µM in data set [4].

For `C#Cc1c(C(N)=O)ncn1[C@@H]1O[C@H](COP(=O)(O)O)[C@@H](O)[C@H]1O` [EICAR 5′-monophosphate], in data set [5], the “Serum t1/2” value was found to be 3 h.

For the compound `NC(=O)c1ncn([C@@H]2O[C@H](COP(=O)(O)O)[C@@H](O)[C@H]2O)n1` [Ribavirin 5′-monophosphate], in data set [5], the “Serum t1/2” value came out at 6 h.
